Data as given in US8030335B2, “Use of liver X receptor agonists” (Laboratoires Fournier S.A., priority 2005, dated 2011).

Assays:
[1] = system: male Zucker Diabetic Fatty fa/fa (ZDF) rat; experiment: Plasma glucose in ZDF rats during and after 3 weeks of oral treatment; assay type: in vivo
Description: The male Zucker Diabetic Fatty fa/fa (ZDF) rat is a model of Type II diabetes. The rats are insulin resistant but normoglycemic from birth and they develop diabetes from about week 7 to week 10 of age. During the transitional period, the animals go through a state of impaired glucose tolerance. Although the animals are hyperinsulinemic before diabetes onset and during the early stages of diabetes, they later lose glucose-stimulated insulin secretion and finally become almost completely insulinopenic. Male ZDF fa/fa and ZDF fa+ rats were obtained from Genetic Models (Indianapolis, Ind.), at the age of 6 weeks and used in the experiments at 12 weeks of age, after 3 weeks of oral treatment with vehicle or GW3965 (10 mg/kg). Compounds were given once daily (at 17 h) via oral gavage. At the time of their use, the ZDF fa/fa rats weighed 310-350 g, whereas the age-matched ZDF fa+ rats weighed 245-285 g. ZDF fa+ and ZDF fa/fa animals had free access to diabetogenic chow (Purina 5008). Animals were housed 5 per cage in a temperature and humidity-controlled room with a 12/12-h light-dark cycle. Blood samples were taken 16 h after compound administration via the tail vein and measured on a Konelab 300 (Labsystem) clinical chemistry analyzer. At the beginning of the study, glycemia was similar in vehicle- and GW3965-treated ZDF rats.

[2] = system: pancreatic sections; experiment: Apoptosis by TUNEL staining on pancreatic sections; assay type: in vivo, rat; conditions: 8 weeks-old ZDF rats, 10 mg/kg for 4 weeks, vehicle 4.55±1.29%, p<0.05
Method: Islet cell apoptosis was determined by transferase-mediated dUTP nick-end labeling (TUNEL) staining. Cell death was identified by 3′ in situ end labeling of fragmented DNA with biotinylated deoxyuridine-triphosphate. Each pancreatic piece was cut throughout its length into 5 μm thick sections, which were collected on gelatin-coated slides. Four sections at regular intervals were picked in both head and tail pieces. After digestion with Proteinase K (2 μg/ml; Sigma), sections were consecutively washed in TdT buffer (0.5 mol/l cacodylate [pH 6.8], 1 mmol/l cobalt chloride, 0.15 mol/l NaCl) and then incubated at 37° C. with TdT (25U; Boehringer-Mannheim, Mannheim, Germany) and biotinylated dUTP (1 nmol/μl). After washing in TB buffer (300 mmol/l NaCl, 30 mmol/l sodium citrate) to terminate the reaction, incorporation of biotinylated dUTP was detected by a modification of the avidin-biotin complex method. Horseradish peroxidise-conjugated streptavidin-biotin complex was applied (Vector Laboratories). The sections were then developed using DAB as chromogen and lightly counterstained with hematoxylin and mounted in dePex (BDH Laboratory, Poole, England).
Apoptosis have also been estimated using the TUNEL staining method on pancreatic sections of 5 animals of 8 weeks-old ZDF rats treated with GW3965 at 10 mg/kg for 4 weeks.

[3] = system: Glut2 mRNA; experiment: Real-time quantitative RT-PCR of Glut2 in isolated islets of treated ZDF rats; assay type: in vivo, rat; conditions: normalized to 18S rRNA, vehicle ZDF 0.27, fa+ 0.40±0.22
Method: Pancreatic and duodenal homeobox gene 1, Pdx1 (Genbank: NM_022852) and facilitated glucose transporter, member 2, Glut2 (Genbank: NM_012879) gene expression were measured by real time quantitative RT-PCR. Total RNAs from fresh isolated rat pancreatic islets were prepared using Rneasy 96 Kit according to the manufacturer's protocol (Qiagen, France), treated with Dnase I to remove contaminating DNA (Stratagene, France), and quantified using the iScript cDNA Synthesis and iQ SYBR Green Supermix kits (Biorad, france). Real-time quantitative RT-PCR was performed using the iCycler Detection System instrument and software (Bio-Rad). As the predicted size of the amplified cDNAs and the Tm values for the primers were similar, uniform amplification conditions were applied (ie. annealing at 60° C.). Specificity of amplified products was monitored by performing melting curves at the end of each amplification. Expression levels were quantified (total RNA units) by generating a six-point serial standard curve. RNA samples were normalized for comparison by determining 18S rRNA levels. In this example, the mRNA expression of PDX1 and Glut2 was determined. As previously described, PDX1 and Glut2 are markers of the regeneration of beta cells. […] PDX1 and Glut2 mRNA expression was increased in islets isolated from GW3965-compared to vehicle-treated ZDF rats. […]

[4] = system: NOD mice; experiment: Regeneration of beta cells in NOD mice (pancreatic histology); assay type: in vivo, mouse; conditions: NOD mice of 4 weeks old, 50 mg/kg for 4 weeks (5 days/7)
Description: (§1) NOD (non-obese diabetes) mice is an experimental model of spontaneous resembling human Type I (insulin-dependent) diabetes, which results from the progressive islet invasion and beta cells destruction by autoreactive T cells. This spontaneous diabetes model offers a unique opportunity of studying the autoreactive T cells involved in the process of beta cell destruction and of settling preventive strategies before clinical onset of the disease. Non fasted mice were killed two days after the last administration of compounds. Pancreatic glands were excised and processed for conventional histological studies after fixation in Bouin's alcoholic solution. Five μm sections were stained with haematoxylin-eosin as described previously by Thivolet C. H. et al., 1991, Diabetologia, 34, 314-319. NOD mice of 4 weeks old have been treated for 4 weeks (5 days/7) with vehicle or GW3965 at 50 mg/kg. Pancreatic histological studies have been carried out as described above.

[5] = system: NOD mice; experiment: Insulitis development in NOD mice (pancreatic histology); assay type: in vivo, mouse
Description: as §1, with “314-319. The evolution of insulitis was analysed in pancreas. […] State 4 was not observed in 8 weeks old mice, this state appeared at around 9-10 weeks.” for “314-319.”

O=C(O)Cc1cccc(OCCCN(Cc2cccc(C(F)(F)F)c2Cl)CC(c2ccccc2)c2ccccc2)c1 [GW3965]
plasma glucose (glycemia) during treatment ([1]; 10 mg/kg oral once daily, day 6 to day 21, vs vehicle): significantly prevented this rise and maintained glycemia at low level
glycemia and HbA1c ([1]; after 21 days of treatment): significant decrease
glycemia after the end of treatment ([1]; day 44, no treatment from day 21, previously 10 mg/kg oral for 3 weeks): still significantly reduced
% of apoptosis by TUNEL staining [2]: 1.41±0.96%
Glut2 mRNA expression [3]: 0.55±0.23
regeneration of beta cells (formation of new islets) [4]: formation of new islets
normal islets in the pancreas ([5]; NOD mice of 4 weeks old, 50 mg/kg for 4 weeks (5 days/7), control 32%): 94%
insulitis (lymphocytes infiltration) ([5]; NOD mice, 50 mg/kg for 4 weeks, pancreatic sections): appears protected against the lymphocytes infiltration
